Data from article PMC6353875, “The EZH2 SANT1 domain is a histone reader providing sensitivity to the modification state of the H4 tail” (Scientific Reports, 2019).
Entries after “also recorded” stand apart in the source; their conditions may differ.

Tests used:
SRM-SANT1 = experiment: Biotinylated histone peptide pulldown; format: binding, human; conditions: for effect of modification on SRM-SANT1 binding (pulldown): 1 μg SRM-SANT1 with 1 μg Biotin-tagged H4 peptide, overnight 4 °C, 150 mM NaCl, 50 mM Tris (pH 6.5), 3 mM DTT, streptavidin resin, coomassie, ImageJ, triplicate, vs corresponding unmodified peptide, p-value < 0.05; for effect of H4 modification on binding of SANT1 to H4 (abstract summary): summary statement in abstract
Text: (§1) The complete human EZH2 cDNA was obtained from OpenBiosystems (GE Healthcare, Accession #:BC010858). EZH2 SANT1 (residues 159–251) and SRM-SANT1 (residues 141–251) were subcloned into a pDEST15 (N-terminal GST-tag) expression vector using the Gateway Recombination cloning method (Invitrogen, ThermoScientific) with a PreScission Protease cleavage site engineered between the GST-tag and the N-terminus of EZH2 SRM-SANT1. Mutants were generated in the 141–251 construct using site-directed mutagenesis (Q5 mutagenesis kit, New England Biolabs).
(§2) For purification, cell pellets were thawed on ice and lysed by emulsiflex in a lysis buffer containing 150 mM NaCl, 50 mM Tris (pH 6.5), 3 mM DTT, 0.1% Triton X-100 and DNaseI. Lysate was cleared at 18,000 g for 1 hour at 4 °C. The soluble supernatant was incubated with glutathione agarose resin (ThermoFisher Scientific) and washed extensively with a buffer containing 900 mM NaCl, 50 mM Tris (pH 6.5) and 3 mM DTT. The GST-tag was cleaved by incubation with PreScission Protease overnight and SRM-SANT1 was further purified by FPLC using […] over a Source15S column and size exclusion chromatography over a superdex 75 column. The final buffer contained 150 mM NaCl, 50 mM Tris (pH 6.5), 3 mM DTT, with or without 5 mM EDTA.
Biotinylated unmodified histone H4 (1–23, SKU:12-0029), unmodified H4 (11–27, SKU:12-0035), H4K16ac (1–23, SKU:12-0033), H4K20ac (1–24, SKU:12-0052) and H4K20me3 (11–27, SKU:12-0038) peptides were obtained from EpiCypher. 1 μg of purified SRM-SANT1 was incubated with 1 μg of Biotin-tagged H4 peptides unmodified or containing single modifications. Reactions were incubated overnight rocking end over end at 4 °C in a binding buffer containing 150 mM NaCl, 50 mM Tris (pH 6.5), 3 mM DTT. Streptavidin sepharose resin (25 μL of 50% slurry, GE Life Sciences) was added to each reaction and rocked end over end at 4 °C for two hours. The reactions were then spun at 2500 × g, supernatant decanted and beads washed with 500 μL of the binding buffer four times. After the final wash, beads were resuspended in 5x SDS loading dye, ran on a 4–20% gradient gel and visualized using coomassie staining. Gels were imaged using an ImageQuant LAS 4000 imager. Quantification of triplicate pull down experiments was performed using ImageJ[59].

[1] = target: T1, EZH2 SRM-SANT1 (residues 141–251) (Homo sapiens, UniProt Q15910); experiment: NMR titration (1H-15N HSQC) of SRM-SANT1 with histone peptides; format: binding; conditions: for chemical shift perturbations (CSPs) upon peptide addition: 1H-15N HSQC overlay, 25 °C, 0.05–0.10 mM 15N-SRM-SANT1, increasing concentrations of peptide; for effect of H4K16 acetylation on interaction/binding (NMR): 1H-15N HSQC titration of SRM-SANT1 with H4K16ac(1–21)
T1 construct: All additional studies were performed with the SRM-SANT1 construct containing residues 141–251; GST (N, cleaved yes); made in house; host or cells: E. coli Rosetta2 (DE3) pLysS
T1 sequence (Q15910 141-251): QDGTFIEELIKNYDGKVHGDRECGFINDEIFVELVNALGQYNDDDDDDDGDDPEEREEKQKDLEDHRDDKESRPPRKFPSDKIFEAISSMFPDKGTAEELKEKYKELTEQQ
Text: as §1, §2
Biotinylated histone H4K16ac (1–21, AS-64847-1) was obtained from Anaspec. All histone peptides were dissolved in H2O at a concentration of 20 mM, and the pH adjusted to ~7.0. DNA oligos were obtained from IDT. The DNA was annealed by mixing equimolar amounts of single stranded oligos. DNA was heated to 95 °C for 10 minutes before allowing to cool overnight. The annealed DNA was further purified by size exclusion chromatography over a superdex 75 column in a buffer containing 150 mM NaCl, 50 mM Tris (pH 6.5), 3 mM DTT, with 5 mM EDTA. Titrations were performed by collecting ^15N-HSQC spectra on 0.05–0.10 mM ^15N-EZH2 SRM-SANT1 while titrating in increasing concentrations of the respective ligands. Titration experiments were performed at 25 °C on a Bruker Avance II 800 MHz NMR spectrometer equipped with a 5 mm triple resonance cryoprobe. Data was processed and analyzed using NMRPipe and CcpNmr[53],[54].
Kd values were determined for all individual residues with significant Δδ in each individual titration.

| Substance | effect of modification on SRM-SANT1 binding (pulldown) (SRM-SANT1) | effect of H4 modification on binding of SANT1 to H4 (abstract summary) (SRM-SANT1) | chemical shift perturbations (CSPs) upon peptide addition [1] | other results |
| --- | --- | --- | --- | --- |
| H4K16ac: H4K16ac (1–23, SKU:12-0033), biotinylated peptide from EpiCypher; pulldown | significant decreases in SRM-SANT1 binding | abrogate binding of SANT1 to H4 |  |  |
| H4(1–10): unmodified histone H4 (1–10), custom synthesized by GenScript (SGRGKGGKGL) |  |  | very minor CSPs throughout SANT1, indicative of non-specific interactions |  |
| H4K20me3: H4K20me3 (11–27, SKU:12-0038), biotinylated peptide from EpiCypher | significant decreases in SRM-SANT1 binding | abrogate binding of SANT1 to H4 |  |  |
| H4(11–21): unmodified histone H4 (11–21), custom synthesized by GenScript |  |  | confirms binding to the basic patch of H4; also recorded: very similar CSPs as was observed for H4(1–21) | fold weaker binding (Kd) than H4 tail (1–21) ([1]; ratio of Kd to that of H4 (1–21)): ~ 2 x |
| H4K16ac(1–21): Biotinylated histone H4K16ac (1–21, AS-64847-1), obtained from Anaspec; NMR titration |  |  |  | effect of H4K16 acetylation on interaction/binding (NMR) [1]: abrogates binding; effect of H4K16 acetylation on interaction/binding (NMR) ([1]; listed as H4K16ac peptide): substantially abrogates interaction with the H4 tail |
| H4K20ac: H4K20ac (1–24, SKU:12-0052), biotinylated peptide from EpiCypher | decreased binding, though not statistically significantly | abrogate binding of SANT1 to H4 |  |  |
